{"source": "patent US20260055061A1", "about": "“HALOPHTHALIMIDE COMPOUNDS AND METHODS OF USE AGAINST TBI, INFLAMMATORY DISORDER, AUTOIMMUNE DISORDER, NEURODEGENERATIVE DISEASE OR VIRAL INFECTION” (The United States of America, as represented by the …, priority 2022, published 2026)", "key": {"CCI-induced TBI mice": {"test_system": "CCI-induced TBI mice", "assay": "CCI mouse model of TBI: DigiGait gait analysis", "type": "in vivo", "conditions": "high dose 32.5 mg/kg; 1 week after CCI", "experimental": "In vivo model of TBI: Mice were anesthetized with 2.5% tribromoethanol (Avertin: 250 mg/kg; Sigma, St. Louis, MO, USA) and placed in a stereotaxic frame (Kopf Instruments, Tujunga, CA, USA). A 4 mm craniotomy was performed using sterile procedures; the craniotomy point was selected midway between the lambda and bregma sutures and laterally midway between the central suture and the temporalis muscle. The skull fragment was then carefully removed without disruption of the underlying dura. Prior to injury induction, the tip of the impactor was angled and kept perpendicular to the exposed cortical surface. The mouse CCI instrument consisted of an electromagnetic impactor, Impact One (Leica Biosystems Inc., Buffalo Grove, IL, USA) that allows independent alteration of injury severity by controlling contact velocity and the level of cortical deformation. In these experiments, the contact velocity was set at 5.0 m/sec, the dwell time was set at 0.2 s and the deformation depth was set at 2 mm to produce a moderate TBI. The injury site was allowed to dry prior to suturing the wound. During surgery and recovery, the body temperature of the animals was maintained at 36-37° C. by using a heating pad. […] Mice were randomized following CCI to treatment with either of two doses of TFBP (16.25 mg/kg and 32.5 mg/kg, i.p.) or saline, and were dosed at 1 and 24 hr after the injury.\nBehavioral assessment for motor functions and coordination: Behavioral tests were performed 1 week and 2 weeks after injury, to assess changes in motor functions and coordination. All tests were performed during the animals' light phase; cages were transported to testing rooms at least 30 min prior to testing.\nGait analysis: For the gait analysis, mice were tested on a fixed-speed treadmill apparatus (DigiGait; Mouse Specifics). Mice were habituated to the apparatus for 1 min, and then given a 1-min run at 5 cm/s. Following a 1-min rest, the treadmill speed was increased to 15 cm/s. Video was collected at high speed from a ventrally placed camera, and 3-5 s of representative gait video was selected by an experienced but blinded user for automated analysis.\nIn Vivo Model of TBI: TBI studies were conducted in 8-week-old male C57/BL6 mice (25-30 g; n=20), Jackson Laboratory, Bar Harbor, Maine USA. Mice were randomly assigned to four groups prior surgery, CMC+Sham, CMC+TBI, compound 30 (Low dose (LD), 14.78 mg/kg, prepared in 1% CMC in PBS)+TBI, compound 30 (High dose (HD), 29.57 mg/kg)+TBI, and evaluated the effects of compound 30 on TBI. Mice were assessed for gait function and motor coordination, balance function. Animals were subsequently evaluated for cellular changes using histological and immunohistochemistry staining. […]"}, "chicken embryos": {"test_system": "chicken embryos", "assay": "Chick embryo teratogenicity", "type": "in vivo", "experimental": "Chick embryology and analysis: Chicken eggs were obtained from Henry Stewart & Co Ltd, Norfolk UK. All work with chicken embryos obeyed UK Home Office regulations and followed guidelines, standards and practices governed by the University of Aberdeen Ethics Committee (Scotland, UK). […] Embryos were incubated at 37° C. for the required time period to reach E2.5 and E4 (early and mid-developmental stages, respectively). Eggs were then opened and the embryonic membranes protecting the embryos were removed with forceps. Chicken embryos typically lie on one side, so the left side is directly against the yolk and the right side can be observed. Drug (TFBP) or Control (DMSO alone) solutions were applied in 100 μL aliquots over the middle of the embryo on its right side. Embryos were left at room temperature for 20 min before being replaced in a 37° C. incubator. Due to the limited diffusion of drugs when applied to the right side of an embryo, the right side is considered the ‘treatment’ side and the left (facing internally towards the yolk sack) is considered normal after treatment and can, thereby, act as an internal control."}, "[1]": {"assay": "Phase I metabolic stability in human liver microsomes (+/- NADPH, LC/MS)", "type": "in vitro ADME", "experimental": "The fluorinated compounds were evaluated under the more metabolically demanding conditions of a Phase-1-type microsomal analysis. […] For this initial comparison, the 7-fluoro-dithiopomaldiomide 30 was selected owing to its combination of favorable biological parameters and general ease of synthesis. The reactions on each sample were initiated by addition of human liver microsomes in the presence or absence of an NADPH regenerating system, and compound disappearance was monitored via LC/MS (FIG. 14, Table 10)."}, "KC/GRO (CXCL1)": {"test_system": "KC/GRO (CXCL1)", "assay": "LPS model of inflammation in rats: KC/GRO (CXCL1)", "type": "in vivo", "conditions": "29.57 mg/kg i.p.; LPS rat model", "experimental": "Four hours after LPS injection, animals were euthanized, and blood and brain tissue were collected and placed on wet ice. Plasma was quickly separated from blood by centrifuge at 10,000 g. 5 min, 4° C., and brain regions of cortex, hippocampus and the rest of brain were dissected into separate vials on wet ice, then stored at −80° C. Brain tissues were then sonicated in a TRIS based lysis buffer (Mesoscale Discovery) with 3× protease/phosphatase inhibitors (Halt™ Protease and Phosphatase Inhibitor Cocktail, Thermo Fisher Scientific), were then centrifuged at 10,000 g, 10 min, 4° C., and protein concentrations were measured by Bicinchoninic acid assay (BCA, Thermo Fisher Scientific). Rat plasma, cerebral cortical and hippocampal samples were then analyzed by multi-proinflammatory cytokines ELISA (V-PLEX Proinflammatory Panel 2 Rat Kit, Mesoscale Discovery), following the manufacturer's protocol. The processes and dosages of the experiment of drug treatment effects on LPS rat model was made on the basis of our previous studies."}, "[2]": {"conditions": "3.5 μM, chicken embryos age E4, N = 7"}, "[3]": {"conditions": "7.0 μM, chicken embryos age E2.5, N = 6"}, "[4]": {"conditions": "7.0 μM, chicken embryos age E4, N = 7"}, "[5]": {"conditions": "14.0 μM, chicken embryos age E2.5, N = 6"}}, "note": "“Also recorded” adds a separate entry of the source."}
{"smiles": "CC1(C)[C@@H]2CC[C@@]1(C)[C@@H](N1C(=O)c3c(F)c(F)c(F)c(F)c3C1=O)C2", "note": "[Compound 14, 4,5,6,7-Tetrafluoro-2-((1R,2S,4R)-1,7,7-trimethylbicyclo[2.2.1]heptan-2-yl) isoindoline-1,3-dione]", "values": [{"measurement": "gait brake time", "setting": "CCI-induced TBI mice", "value": "fully mitigates this rise"}, {"measurement": "Abnormal embryos", "setting": "chicken embryos; [2]", "value": 0}, {"measurement": "Dead embryos", "setting": "chicken embryos; [2]", "value": 0}, {"measurement": "Normal embryos", "setting": "chicken embryos; [2]", "value": 7}, {"measurement": "Abnormal embryos", "setting": "chicken embryos; [3]", "value": 0}, {"measurement": "Dead embryos", "setting": "chicken embryos; [3]", "value": 2}, {"measurement": "Normal embryos", "setting": "chicken embryos; [3]", "value": 4}, {"measurement": "Abnormal embryos", "setting": "chicken embryos; [4]", "value": 0}, {"measurement": "Dead embryos", "setting": "chicken embryos; [4]", "value": 3}, {"measurement": "Normal embryos", "setting": "chicken embryos; [4]", "value": 4}, {"measurement": "Dead embryos", "setting": "chicken embryos; [5]", "value": 3}, {"measurement": "Normal embryos", "setting": "chicken embryos; [5]", "value": 2}, {"measurement": "developmental anomaly in chicken embryos", "setting": "chicken embryos; 14.0 μM, a single embryo, eye on control side", "value": "micro-opthalmia of the eye"}, {"measurement": "deaths of chicken embryos", "setting": "chicken embryos; 14.0 μM, around 48-72 h after application", "value": "three deaths"}, {"measurement": "effects on embryo development", "setting": "chicken embryos; 3.5 and 7.0 μM", "value": "No effects on embryo development"}, {"measurement": "tolerability in chicken embryos", "setting": "chicken embryos; lower dose 3.5 μM, E2.5 and E4", "value": "well tolerated"}, {"measurement": "death rate in chicken embryos", "setting": "chicken embryos; two higher doses 7.0 and 14.0 μM", "value": "increasing death rate"}]}
{"smiles": "Nc1ccc(F)c2c1C(=S)N(C1CCC(=S)NC1=O)C2=O", "note": "(stereo not drawn) [Compound 30, 4-amino-7-fluoro-2-(2-oxo-6-thioxopiperidin-3-yl)-3-thioxoisoindolin-1-one]", "values": [{"measurement": "more material remaining compared to non-fluorinated partner", "setting": "[1]; vs 4′, human liver microsomes", "value": "roughly 16%"}, {"measurement": "more stability in the absolute sense", "setting": "[1]; vs non-fluorinated 4′, human liver microsomes", "value": 7, "unit": "%"}, {"measurement": "stability in human liver microsomes (in words)", "setting": "[1]; with and without NADPH", "value": "heightened resistance; also recorded: enhanced metabolic fortitude"}, {"measurement": "KC/GRO in brain", "setting": "KC/GRO (CXCL1)", "value": "significantly reduce"}]}
